One molecule from US10214492B2, “Heterocyclic inhibitors of MCT4” (Vettore, LLC, priority 2016, dated 2019) can be followed below.

Data set [1] in a line: Pharmacokinetic assay in rat (IV 3 mg/kg, PO 10 mg/kg). Format: in vivo. The note with it: Male Sprague-Dawley rat.
Data set [2] is described as follows: Pharmacokinetic assay in mouse (IV 3 mg/kg, PO 10 mg/kg). In kind it is in vivo. The note with it: Male CD1 mouse.
The nature of data set [3]: Metabolic stability in mouse liver microsomes (in vitro t1/2). Format: in vitro ADME. The method, boiled down:
(§1)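 Test compound (2 μM final) was added to NADPH-supplemented microsomes at 0.5 mg/mL protein and sampled over 60 min (0–60 min time points). In vitro t1/2 was calculated as −0.693/k, with k the slope of ln percent parent remaining, measured by LC-MS/MS, against time.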
In general terms: Liver microsomes are vesicles of endoplasmic reticulum, rich in cytochrome P450 enzymes.

Data set [4] can be described thus: Metabolic stability in rat liver microsomes (in vitro t1/2). In kind it is in vitro ADME. The method, boiled down: as §1
Data set [5] is described as follows: Adjuvant-induced arthritis model in rat: Mechanical Allodynia test (MA, Von Frey). In kind it is in vivo. The note with it: SD rat, CFA-induced arthritis; PO 3 days post CFA; compared to Dexamethasone.
Data set [6] can be described thus: Metabolic stability in human liver microsomes (in vitro t1/2). In kind it is in vitro ADME. The method, boiled down: as §1
A further data set deals with MCT4 (Homo sapiens (Human), UniProt O15427). In words: Assay 3: MCT4-mediated lactate transport in MDA-MB-231 breast cancer cells. The note with it: MDA-MB-231 cells; lactate transport. In kind it is cell-based. The method, boiled down:
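Read-out is BCECF fluorescence tracking the intracellular pH shift from MCT4-mediated lactate/H+ co-transport. Before measurement, MDA-MB-231 cells take up BCECF-AM for 5 min at 37° C, then are washed into Tyrode's Solution, pH 7.4.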

A short description of data set [7]: Adjuvant-induced arthritis model in rat: Difference of Weight Bearing test (DWB). In kind it is in vivo. The note with it: SD rat, CFA-induced arthritis; PO 3 days post CFA; compared to Dexamethasone.
For the next data set, the target named is MCT1 (Homo sapiens (Human), UniProt P53985). Briefly: Assay 4: MCT1-mediated lactate transport in BT20 breast cancer cells. Format: cell-based. The note with it: Table 27. The method, boiled down: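 Transport started with 10 mM L-lactate on BCECF-loaded BT20 cells in Tyrode's Solution, pH 7.4. Dye loading: BCECF-AM ester (30 mM DMSO stock), 5 min at 37° C, then one wash.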
Sequence of MCT1 (P53985 whole entry): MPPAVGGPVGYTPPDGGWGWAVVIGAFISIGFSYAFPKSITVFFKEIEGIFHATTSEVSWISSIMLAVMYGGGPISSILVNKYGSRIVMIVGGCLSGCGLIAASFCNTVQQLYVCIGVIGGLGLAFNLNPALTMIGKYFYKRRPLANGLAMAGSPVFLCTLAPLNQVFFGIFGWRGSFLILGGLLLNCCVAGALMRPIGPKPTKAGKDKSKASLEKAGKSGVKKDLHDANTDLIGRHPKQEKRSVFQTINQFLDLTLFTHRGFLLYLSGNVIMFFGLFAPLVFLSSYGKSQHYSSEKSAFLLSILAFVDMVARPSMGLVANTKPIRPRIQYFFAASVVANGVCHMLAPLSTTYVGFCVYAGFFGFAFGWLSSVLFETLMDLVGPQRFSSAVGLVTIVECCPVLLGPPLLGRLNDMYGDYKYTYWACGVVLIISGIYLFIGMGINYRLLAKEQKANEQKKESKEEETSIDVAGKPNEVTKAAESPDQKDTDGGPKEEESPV
Sequence of MCT1 (P35613 140-385 partner): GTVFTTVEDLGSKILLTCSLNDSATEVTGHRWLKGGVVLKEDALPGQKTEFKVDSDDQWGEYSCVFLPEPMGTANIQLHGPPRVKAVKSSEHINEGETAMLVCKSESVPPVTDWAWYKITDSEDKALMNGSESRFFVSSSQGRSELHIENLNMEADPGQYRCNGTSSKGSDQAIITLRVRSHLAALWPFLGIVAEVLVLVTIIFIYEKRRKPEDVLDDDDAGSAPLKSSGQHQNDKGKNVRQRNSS

Where [8] appears, read: oral bioavailability, PO 10 mg/kg.

In general, IC50 refers to the concentration at which inhibition is half-maximal. A high value points to lower potency.

Sequence of MCT4 (O15427 whole entry, looked up): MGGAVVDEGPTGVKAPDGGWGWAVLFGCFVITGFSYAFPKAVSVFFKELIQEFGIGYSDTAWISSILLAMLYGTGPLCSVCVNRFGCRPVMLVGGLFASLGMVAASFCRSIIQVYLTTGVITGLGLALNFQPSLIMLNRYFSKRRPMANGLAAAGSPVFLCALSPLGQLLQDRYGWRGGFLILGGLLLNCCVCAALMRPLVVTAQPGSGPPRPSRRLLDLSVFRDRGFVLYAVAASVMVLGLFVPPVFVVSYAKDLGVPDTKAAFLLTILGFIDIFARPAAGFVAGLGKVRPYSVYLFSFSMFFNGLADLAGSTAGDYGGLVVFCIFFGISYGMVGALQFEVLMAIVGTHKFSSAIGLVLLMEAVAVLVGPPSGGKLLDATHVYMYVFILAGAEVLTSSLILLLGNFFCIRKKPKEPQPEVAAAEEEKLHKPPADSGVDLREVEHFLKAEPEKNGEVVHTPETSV
Sequence of MCT4 (P35613 whole entry partner, looked up): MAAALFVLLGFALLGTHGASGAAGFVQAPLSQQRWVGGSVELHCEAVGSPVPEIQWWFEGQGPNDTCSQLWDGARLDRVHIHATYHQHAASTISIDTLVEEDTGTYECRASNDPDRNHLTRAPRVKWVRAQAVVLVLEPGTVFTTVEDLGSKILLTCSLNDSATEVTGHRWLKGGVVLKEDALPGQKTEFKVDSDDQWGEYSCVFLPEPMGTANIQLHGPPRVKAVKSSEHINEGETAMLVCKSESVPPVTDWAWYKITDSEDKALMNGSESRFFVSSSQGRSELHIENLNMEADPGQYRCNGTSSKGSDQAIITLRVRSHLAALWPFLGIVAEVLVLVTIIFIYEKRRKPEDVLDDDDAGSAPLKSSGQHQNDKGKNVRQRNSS

As for `CC(C)(OCc1cc(-c2cccc(OC3CC3)c2)n(-c2ccccc2N2CCC2)n1)C(=O)O` [Example 232, 2-([1-[2-(Azetidin-1-yl)phenyl]-5-(3-cyclo-propoxyphenyl)-1H-pyrazol-3-yl]methoxy)-2-methylpropanoic acid], the “Rat F” value in [1] (setting [8]) came to 52%. In addition, the half-life in [1] (plasma, PO 10 mg/kg, read-out: Rat t1/2 (converted)) was 2.6 h; in data set [2] (plasma, PO 10 mg/kg, read-out: Mouse t1/2 (converted)) it was 3.1 h. Besides, the Vd in data set [1] (plasma, volume of distribution, read-out: Rat Vss) stood at 0.15 L/kg; in data set [2] (plasma, volume of distribution, read-out: Mouse Vss), 0.21 L/kg. Moreover, the “Mouse F” value in data set [2] (setting [8]) stood at 56%. Further, the half-life at 2 µM in [3] (mouse liver microsomes 0.5 mg/mL, 2 μM compound, read-out: Mouse microsome t1/2, min) was determined as 1.22 h; in [4] (rat liver microsomes 0.5 mg/mL, 2 μM compound, read-out: Rat microsome t1/2, min), 1.17 h; in [6] (human liver microsomes 0.5 mg/mL, 2 μM compound, read-out: Human microsome t1/2, min), 1.62 h. Moreover, in data set [3] (mouse liver microsomes, 60 min), the “Mouse microsome % 60 min” value was 59%. In data set [4] (rat liver microsomes, 60 min), the “Rat microsome % 60 min” value is 50%. In addition, the “Mechanical Allodynia (Von Frey), Minimal Efficacious Dose” value in data set [5] is reported as 1 mg/kg. In data set [6] (human liver microsomes, 60 min), the “Human microsome % 60 min” value is 65%. Also, the values for the IC50 against MCT4 and on MCT1 were 2.1 nM and 29000 nM, respectively. Besides, the “Difference in Weight Bearing, Minimal Efficacious Dose” value in [7] is recorded as 1 mg/kg.
